Data reported in paper PMC6755814, “Crystal structure of the first eukaryotic bilin reductase GtPEBB reveals a flipped binding mode of dihydrobiliverdin” (The Journal of Biological Chemistry, 2019).

Assays:
[1] = target: T1, mGtPEBB (Guillardia theta, UniProt L1IWQ9, R298M); test: UV/Vis spectral shift; anaerobic reductase assay with HPLC; type: biochemical; conditions: pH 7.5, ferredoxin from Synechococcus sp. PCC7002, NADPH regenerating system; product DHBV, low efficiency
T1 construct: gene GUITHDRAFT_96430; GST fusion in E. coli, cut by TEV protease, leaving N-terminal Gly-Gly; single-domain protein; codon-optimized gene
T1 sequence (L1IWQ9 entry or part of it R298M): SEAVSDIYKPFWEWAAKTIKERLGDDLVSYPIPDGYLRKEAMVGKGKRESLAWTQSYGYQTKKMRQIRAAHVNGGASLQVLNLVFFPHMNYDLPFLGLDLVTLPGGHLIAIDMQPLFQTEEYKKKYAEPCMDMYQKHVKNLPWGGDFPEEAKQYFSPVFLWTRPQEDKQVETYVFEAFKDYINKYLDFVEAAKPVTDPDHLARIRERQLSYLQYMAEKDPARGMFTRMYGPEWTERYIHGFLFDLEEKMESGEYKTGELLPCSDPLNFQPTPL

[2] = target: T2, mGtPEBB (Guillardia theta, UniProt L1IWQ9); test: UV/Vis spectral shift; HPLC of products; type: binding; conditions: pH 7.5, 10 μM protein, 10 μM bilin; unnatural ligand, not reduced
T2 construct: gene GUITHDRAFT_96430; GST fusion in E. coli, cut by TEV protease, leaving N-terminal Gly-Gly; single-domain protein; codon-optimized gene
T2 sequence (L1IWQ9 84-356): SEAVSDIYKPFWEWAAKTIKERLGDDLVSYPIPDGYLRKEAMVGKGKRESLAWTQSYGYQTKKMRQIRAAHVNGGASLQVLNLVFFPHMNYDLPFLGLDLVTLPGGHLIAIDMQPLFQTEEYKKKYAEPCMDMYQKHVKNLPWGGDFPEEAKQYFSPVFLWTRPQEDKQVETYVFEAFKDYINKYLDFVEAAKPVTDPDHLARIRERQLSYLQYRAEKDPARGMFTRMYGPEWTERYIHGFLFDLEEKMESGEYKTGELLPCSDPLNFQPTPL

[3] = target: T3, mGtPEBB (Guillardia theta, UniProt L1IWQ9, D302N); test: UV/Vis spectral shift; anaerobic reductase assay with HPLC; type: binding; conditions: pH 7.5, ferredoxin from Synechococcus sp. PCC7002, NADPH regenerating system
T3 construct: gene GUITHDRAFT_96430; GST fusion in E. coli, cut by TEV protease, leaving N-terminal Gly-Gly; single-domain protein; codon-optimized gene
T3 sequence (L1IWQ9 entry or part of it D302N): as the sequence (L1IWQ9 entry or part of it R298M) above, with M215R, D219N counted along it

[4] = target: T4, mGtPEBB (Guillardia theta, UniProt L1IWQ9, R298K); test: as above; type: biochemical; conditions: pH 7.5, ferredoxin from Synechococcus sp. PCC7002, NADPH regenerating system
T4 construct: gene GUITHDRAFT_96430; GST fusion in E. coli, cut by TEV protease, leaving N-terminal Gly-Gly; single-domain protein; codon-optimized gene
T4 sequence (L1IWQ9 entry or part of it R298K): as the sequence (L1IWQ9 entry or part of it R298M) above, with M215K counted along it

[5] = target: T1, mGtPEBB; test: as above; type: binding; conditions: pH 7.5, ferredoxin from Synechococcus sp. PCC7002, NADPH regenerating system
[6] = target: T2, mGtPEBB; test: X-ray crystal structure of complex, […] Å; UV/Vis spectral shift; anaerobic reductase assay with HPLC; type: binding; conditions: co-crystal at pH 8.5; assay pH 7.5 with ferredoxin from Synechococcus sp. PCC7002, NADPH regenerating system; active site, flipped orientation
[7] = target: T5, mGtPEBB (Guillardia theta, UniProt L1IWQ9, R298S); test: UV/Vis spectral shift; anaerobic reductase assay with HPLC; type: binding; conditions: pH 7.5, ferredoxin from Synechococcus sp. PCC7002, NADPH regenerating system
T5 construct: gene GUITHDRAFT_96430; GST fusion in E. coli, cut by TEV protease, leaving N-terminal Gly-Gly; single-domain protein; codon-optimized gene
T5 sequence (L1IWQ9 entry or part of it R298S): as the sequence (L1IWQ9 entry or part of it R298M) above, with M215S counted along it

[8] = target: T6, mGtPEBB (Guillardia theta, UniProt L1IWQ9, R298A); test: as above; type: biochemical; conditions: pH 7.5, ferredoxin from Synechococcus sp. PCC7002, NADPH regenerating system; trace conversion only
T6 construct: gene GUITHDRAFT_96430; GST fusion in E. coli, cut by TEV protease, leaving N-terminal Gly-Gly; single-domain protein; codon-optimized gene
T6 sequence (L1IWQ9 entry or part of it R298A): as the sequence (L1IWQ9 entry or part of it R298M) above, with M215A counted along it

[9] = target: T7, mGtPEBB (Guillardia theta, UniProt L1IWQ9, R298L); test: as above; type: binding; conditions: pH 7.5, ferredoxin from Synechococcus sp. PCC7002, NADPH regenerating system
T7 construct: gene GUITHDRAFT_96430; GST fusion in E. coli, cut by TEV protease, leaving N-terminal Gly-Gly; single-domain protein; codon-optimized gene
T7 sequence (L1IWQ9 entry or part of it R298L): as the sequence (L1IWQ9 entry or part of it R298M) above, with M215L counted along it

[10] = target: T8, mGtPEBB (Guillardia theta, UniProt L1IWQ9, D182N); test: as above; type: binding; conditions: pH 7.5, ferredoxin from Synechococcus sp. PCC7002, NADPH regenerating system
T8 construct: gene GUITHDRAFT_96430; GST fusion in E. coli, cut by TEV protease, leaving N-terminal Gly-Gly; single-domain protein; codon-optimized gene
T8 sequence (L1IWQ9 entry or part of it D182N): as the sequence (L1IWQ9 entry or part of it R298M) above, with D99N, M215R counted along it

C=CC1=C(C)C(=Cc2[nH]c(C=C3N=C(C=C4NC(=O)C(C)=C4C=C)C(C)=C3CCC(=O)O)c(CCC(=O)O)c2C)NC1=O [BV]
UV/Vis spectral shift; anaerobic reductase assay with HPLC [1]: R215M was able to convert BV to DHBV
UV/Vis spectral shift; HPLC of products [2]: indicated binding of this unnatural substrate

C=CC1=C(C)C(=O)NC1=CC1=NC(=Cc2[nH]c(CC3NC(=O)C(C=C)=C3C)c(C)c2CCC(=O)O)C(CCC(=O)O)=C1C (stereo not shown) [DHBV]
UV/Vis spectral shift; anaerobic reductase assay with HPLC [3]: caused a blue shift of the maximum of the DHBV-binding spectrum
UV/Vis spectral shift; anaerobic reductase assay with HPLC [4]: Replacing Arg-215 with lysine maintained side chain charge and size to some extent
UV/Vis spectral shift; anaerobic reductase assay with HPLC [5]: both R215S and R215M showed binding spectra similar to WT
X-ray crystal structure of complex, 1.65 Å; UV/Vis spectral shift; anaerobic red [6]: Both chains showed clear density for DHBV already after molecular replacement
UV/Vis spectral shift; anaerobic reductase assay with HPLC [7]: both R215S and R215M showed binding spectra similar to WT
UV/Vis spectral shift; anaerobic reductase assay with HPLC [8]: only trace amounts of PEB were detected for R215A
UV/Vis spectral shift; anaerobic reductase assay with HPLC [9]: the binding spectrum of R215L was very similar to the WT spectrum
UV/Vis spectral shift; anaerobic reductase assay with HPLC [10]: caused a blue shift of the maximum of the DHBV-binding spectrum
